11 compounds from ChEMBL document CHEMBL1201862, “PubChem BioAssay data set” (2004) can be followed below.

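Where inhibition never reached the appropriate level, the endpoint shown equals the highest concentration tested. Otherwise, values were interpolated linearly from a five-concentration, 48-hour dose response in 96-well plates. GI50: concentration for 50% inhibition of growth.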 Calls of active or inactive are those of the source. Cut-off read from the data, not from the text of the source: active = GI50 up to about 1.1 µM and inactive = higher. Bounds are passed on as bounds.

Common to all, as to assay: NCI anticancer screen, dose series, 48 h
Assay [1] relates to SF-268.
Assay [2] has as its system CAKI-1.
For assay [3], the system named is HL-60.
In assay [4] the test system is NCI-H23.
For assay [5], the system named is BT-549.
Assay [6] relates to ACHN.
The test system of assay [7] is OVCAR-8.
For assay [8], the system named is M14.
The test system of assay [9] is SK-MEL-5.
For assay [10], the system named is SK-MEL-2.
The test system of assay [11] is A549.
In assay [12] the test system is RPMI-8226.
The test system of assay [13] is UACC-62.
For assay [14], the system named is SN12C.
Assay [15] concerns HT-29.
Assay [16] relates to EKVX.
Assay [17] relates to LOX IMVI.
Assay [18] concerns Malme-3M.
For assay [19], the system named is Hs-578T.
The test system of assay [20] is CCRF-CEM.

For the compound `Cc1cc(Cc2cc(C)c(N)cc2N)c(N)cc1N`, the GI50 in assay [1] was 89.3 µM (inactive); in assay [2], > 100 µM (inactive); in assay [3], > 100 µM (inactive); in [4], 28.2 µM (inactive); in assay [5], > 100 µM (inactive); in assay [6], > 100 µM (inactive). Besides, the GI50 in [7] is 94.4 µM (inactive); in [8], > 100 µM (inactive); in assay [9] it was > 100 µM (inactive); in assay [10] it was > 100 µM (inactive); in [11], > 100 µM (inactive); in assay [12], > 100 µM (inactive). Further, the GI50 was > 100 µM (inactive) in assay [13]; > 100 µM (inactive) in [14]; > 100 µM (inactive) in assay [15]; > 100 µM (inactive) in assay [16]; 81.5 µM (inactive) in assay [17].

Consider `O=C(O)/C(=C\c1ccc(O)cc1)c1cccc2ccccc12`, for which the GI50 in assay [1], in assay [2], in [4], in assay [18], in [5] and in [6] was > 100 µM (inactive) throughout. The GI50 in assay [7], in assay [8], in [9], in assay [10], in assay [11] and in [13] was > 100 µM (inactive) each time. In addition, the GI50 was > 100 µM (inactive) in [19]; > 100 µM (inactive) in assay [14]; > 100 µM (inactive) in assay [15]; 90.6 µM (inactive) in assay [16]; > 100 µM (inactive) in assay [17].

Consider `Cc1cc2c(s1)C(N)CC2=O` (centres undefined), for which the GI50 in [1], in [2], in assay [3], in assay [18], in assay [5] and in [6] was > 100 µM (inactive) throughout. Moreover, the GI50 in assay [7], in assay [8], in [9], in assay [10], in assay [11] and in [12] was > 100 µM (inactive) each time. Also, the GI50 in [13], in [14], in [15], in assay [16] and in assay [20] was > 100 µM (inactive) each time.

On to `O=C(/C=C/c1ccc(-c2ccccc2)cc1)NCc1ccc(C(=O)NCc2ccccc2)cc1`, for which the GI50 in assay [1] was > 100 µM (inactive); in [2], > 100 µM (inactive); in assay [4], 90.2 µM (inactive); in assay [18] it was > 100 µM (inactive); in assay [5], > 100 µM (inactive); in assay [6], > 100 µM (inactive). The GI50 in [7], in assay [8], in assay [9], in assay [10], in assay [11] and in assay [13] was > 100 µM (inactive) each time. Further, the GI50 in assay [19] is > 100 µM (inactive); in assay [14], > 100 µM (inactive); in assay [15], 71.1 µM (inactive); in assay [16], > 100 µM (inactive); in assay [17] it was > 100 µM (inactive); in assay [20], > 100 µM (inactive).

On to `Clc1cccc(Cl)c1C1SCc2nc3ncccc3n21` (centres undefined), for which the GI50 in [1] is > 100 µM (inactive); in assay [2] it was 8.07 µM (inactive); in [3], 60.7 µM (inactive); in assay [4] it was > 100 µM (inactive); in assay [18] it was 55.8 µM (inactive); in [6] it was > 100 µM (inactive). The GI50 was > 100 µM (inactive) in assay [7]; > 100 µM (inactive) in [8]; 65.8 µM (inactive) in assay [9]; > 100 µM (inactive) in [10]; > 100 µM (inactive) in assay [11]; 80.4 µM (inactive) in assay [12]. The GI50 in [13], in [19], in assay [14], in assay [15], in assay [16] and in assay [17] was > 100 µM (inactive) each time. Further, the GI50 in assay [20] is 92.3 µM (inactive).

As to `CC(C)(C)OC(=O)n1cc(C2CN(O)C(=O)C23CCC(=O)N3Cc2ccccc2)c2ccccc21` (centres undefined), the GI50 in assay [1] was 86.3 µM (inactive); in assay [2] it was 54.6 µM (inactive); in assay [3], 54.2 µM (inactive); in [4], 61.1 µM (inactive); in [18], > 100 µM (inactive); in assay [8], > 100 µM (inactive). For the same compound, the GI50 in assay [9] is 29.4 µM (inactive); in assay [10], 14.8 µM (inactive); in [11], 35.3 µM (inactive); in [12], 31.6 µM (inactive); in assay [13], 68.1 µM (inactive); in assay [19], 42.3 µM (inactive). The GI50 in assay [14] was 27 µM (inactive); in assay [15], 39.9 µM (inactive); in [16] it was 21.9 µM (inactive); in assay [17] it was 21.2 µM (inactive); in assay [20] it was 83.2 µM (inactive).

As to `O=c1cc(CC(O)(C(F)(F)Cl)C(F)(F)Cl)[nH]n1-c1ccccc1`, the GI50 in [1], in [3], in assay [4], in assay [18], in [6] and in assay [7] was > 100 µM (inactive) in each case. Moreover, the GI50 in assay [8] was > 100 µM (inactive); in [9] it was > 100 µM (inactive); in assay [11] it was > 100 µM (inactive); in [12] it was > 100 µM (inactive); in assay [13], > 100 µM (inactive); in assay [19], 15 µM (inactive). The GI50 in assay [14], in [15], in [16], in assay [17] and in assay [20] was > 100 µM (inactive) in each case.

`NC1(CCNC(=O)c2ccccc2)CCN(C(=O)c2ccccc2)CC1`: the GI50 in assay [1] is > 100 µM (inactive); in assay [2], > 100 µM (inactive); in assay [4], > 100 µM (inactive); in assay [18], 29.2 µM (inactive); in assay [5], > 100 µM (inactive); in assay [6], > 100 µM (inactive). Moreover, the GI50 in [7] is > 100 µM (inactive); in assay [8] it was > 100 µM (inactive); in [9], > 100 µM (inactive); in assay [10] it was 34.4 µM (inactive); in [11], > 100 µM (inactive); in [12] it was > 100 µM (inactive). Also, the GI50 in assay [13], in assay [19], in assay [14], in assay [15], in assay [16] and in [20] was > 100 µM (inactive) each time.

Turning to `Cc1ccc(/N=N/C(=O)NNc2ccc(C)cc2Br)c(Br)c1`, the GI50 in assay [1] was 25.8 µM (inactive); in [2], 24.9 µM (inactive); in assay [3], 18.7 µM (inactive); in [4], 24.5 µM (inactive); in assay [18], 19.6 µM (inactive); in assay [5], 27.2 µM (inactive). The GI50 in [6] is 26.7 µM (inactive); in assay [7], 20.5 µM (inactive); in [8], 24.5 µM (inactive); in [9] it was 16.9 µM (inactive); in assay [10], 16.1 µM (inactive); in assay [11], 24.4 µM (inactive). Further, the GI50 in assay [12] was 20 µM (inactive); in [13] it was 10.9 µM (inactive); in assay [14], 21.4 µM (inactive); in [15] it was 40.9 µM (inactive); in [17], 18 µM (inactive); in assay [20], 2.58 µM (inactive).

With `COC(=O)c1cc(=O)n(-c2ccc3nn(C)nc3c2)cc1C(=O)OC`, the GI50 in assay [1], in assay [2], in assay [4], in assay [18], in assay [5] and in assay [6] was > 100 µM (inactive) throughout. Moreover, the GI50 in assay [7], in assay [8], in assay [9], in assay [10], in [11] and in assay [12] was > 100 µM (inactive) in each case. Besides, the GI50 in assay [13], in assay [19], in [14], in assay [15], in assay [16] and in [20] was > 100 µM (inactive) each time.

Consider `c1ccc(-c2cccc(-c3ccccn3)n2)nc1` [TERPYRIDINE], for which the GI50 is 0.495 µM (active) in assay [1]; 0.527 µM (active) in [2]; 0.173 µM (active) in assay [3]; 0.753 µM (active) in [4]; 0.181 µM (active) in assay [18]; 0.385 µM (active) in assay [6]. Moreover, the GI50 in assay [7] is 0.453 µM (active); in assay [8] it was 0.164 µM (active); in assay [9], 0.246 µM (active); in [10], 1.17 µM (inactive); in assay [11], 0.384 µM (active); in [12] it was 0.315 µM (active). For the same compound, the GI50 is 0.736 µM (active) in assay [13]; 7.06 µM (inactive) in [19]; 0.631 µM (active) in assay [14]; 0.5 µM (active) in assay [15]; 0.476 µM (active) in assay [16]; 0.249 µM (active) in assay [20].
